We go through four molecules from patent US8952025B2, “Multifunctional radical quenchers and their uses” (Arizona Board of Regents, A Body Corporate of the State of …, priority 2010, dated 2015).

“Also recorded” adds a separate entry of the source. Read-outs that look alike come from different tables or passages of the source.

The subject of one test is CEM cells. As to the kind of experiment: Reactive oxygen species (ROS) assay, DCFH-DA, DEM-treated cells. The class given is cell-based, human. The text has this: Cellular ROS production can be monitored using 2′,7′-dichlorodihydrofluorescein diacetate (DCFH-DA) (LeBel et al. (1992) Chem. Res. Toxicol. 5, 227-231) (Molecular Probes, Eugene, Oreg., USA), a membrane permeable and oxidant-sensitive fluorescent dye. DCFH-DA is a non-fluorescent derivative of fluorescein that emits fluorescence after being oxidized by hydrogen peroxide and other ROS. The emitted fluorescence is directly proportional to the concentration of hydrogen peroxide. DCFH-DA is nonionic and nonpolar and is easily taken up by cells. Once inside the cell, DCFH-DA is hydrolyzed by cellular esterases to non-fluorescent DCFH which traps the dye in the cell. In the presence of ROS including hydrogen peroxide, DCFH is oxidized to the highly fluorescent compound dichlorofluorescein (DCF). The intracellular DCF fluorescence is used as an index of cellular ROS production.
Cellular oxidative stress was induced by pharmacological depletion of glutathione (GSH) using the chemical diethylmaleate (DEM). ROS production was assessed by monitoring DCF fluorescence. Leukemic CEM cells (ATCC®, catalogue number CRL-2264) were cultured in RPMI (GIBCO, Grand island, N.Y., USA) with 10% FCS, 2 mM glutamine (HyClone, South Logan, Utah, USA) and 1% penicillin-streptomycin mix antibiotics (Cellgro, Manassan, Va., USA) supplements. Cells were maintained in the log phase at a concentration of between 1×10^5 and 1×10^6 cells/mL. CEM cells (1×10^6 cell/mL) were plated (1 mL) in twelve well plate and treated with the invention compounds (final concentration 1 and 5 μM), and incubated for two hours at 37° C., 5% CO2. The compounds tested were prepared by first making stock solutions (2.5 mM) in dimethylsulfoxide (DMSO). Cells were treated with 5 mM DEM for 30 minutes and collected by centrifugation at 300×g for 3 min and then washed twice with Hanks' Balanced Salt Solution (HSSB) buffer (Sigma, St. Louis, Mo. USA). Cells were resuspended in HSSB buffer+10 mM glucose and incubated at 37° C. in the dark for 20 min with 10 μM DCFH-DA. Cells were collected by centrifugation at 300×g for 3 min and then washed twice with HSSB buffer. The samples were analyzed immediately by flow cytometry (Becton-Dickinson FACS Caliber), (Cell Quest software, BD Biosciences) using 488 nm excitation laser and FL1-H channel 538 nm emission filter. In each analysis, 10,000 events were recorded after cell debris were electronically gated out. Results obtained were verified by repeating experiments N=3 independent experiments. Authentic hydrogen peroxide was used as a positive control.

The test system of a further test is FRDA fibroblasts. Kind of test: Calcein-AM cell viability assay, BSO-treated FRDA fibroblasts. It is filed as cell-based, human. As to conditions: for protection of FRDA fibroblasts from oxidative damage (cell viability): BSO-treated FRDA fibroblast; for EC50: BSO-treated FRDA fibroblasts, calcein-AM fluorescence, read-out: EC50 (effective concentration that prevents 50% of cell death). Here is the method:
A cell viability assay using the dye calcein acetoxymethyl (AM) was used to determine the effects of invention compounds on GSH-mediated cell death in primary FRDA patient derived fibroblasts (Jauslin et al. (2002) Human Molecular Genetics. 11, 3055-3063) FRDA fibroblasts were treated with L-buthionine (S,R)-sulfoximine (BSO) to inhibit de novo synthesis of GSH (Griffith et al. (1979) J. Biol. Chem. 254, 7558-7560) causing oxidative stress, plasma membrane damage and cell death. Fibroblasts from Friedreich Ataxia patients, but not control cells, die after GSH depletion on incubation with BSO (Jauslin et al. (2002) Human Molecular Genetics. 11, 3055-3063). Cell viability was determined using calcein-AM (Molecular Probe, Eugene, Oreg.). In live cells, non-fluorescent calcein AM is hydrolyzed by intracellular esterases to produce the strongly green fluorescent anion calcein.
Cell culture and reagents: Primary fibroblasts were derived from a patient donor with a molecular diagnosis of FRDA and control donor with no mitochondrial disease. These cell lines were obtained from Coriell Cell Repositories (Camden, N.J., USA; catalog numbers GM04078 and GM08402, respectively). Fibroblasts were cultured in 64% (v/v) Eagle's Minimal Essential Medium (MEM), no phenol red with Eagle's balanced salt (EBS) and 25% M199 with EBS (GIBCO, Grand island, N.Y., USA) supplemented with 10% (v/v) Fetal Calf Serum (HyClone, South Logan, Utah, USA), 1% penicillin-streptomycin mix antibiotics (Cellgro, Manassan, Va., USA), 10 ng/mL insulin (Sigma, St. Louis, Mo., USA), 10 ng/mL basic fibroblast growth factor βFGF (Lonza, Walkersville, Md., USA) and 2 mM glutamine (HyClone, South Logan, Utah, USA). BSO (L-buthionine (S,R)-sulfoximine) and (+)-alpha-tocopherol were purchased from Sigma Chemicals and calcein AM was purchased from Molecular Probes. Cell were grown in 75 cm^2 culture flasks (T75) and incubated at 37° C. in a humidified atmosphere of 5% CO2 in air. Cells were fed twice a week and split every third day at a ratio of 1:3 upon reaching confluency. The invention compounds and reduced and oxidized forms of idebenone and alpha-tocopherol were reconstituted in DMSO or ethanol to provide 2.5 mM stock solutions.
Intervention compounds were screened according to the previous protocol (Jauslin et al. (2002) Human Molecular Genetics. 11, 3055-3063): Fibroblasts were seeded in 96 well microtiter black-walled cell culture plates (Costar, Corning, N.Y., USA) at a density of 3000 cells per well (100 μL). The plates were incubated overnight at 37° C. in a humidified atmosphere of 5% CO2 in air to allow attachment of the cells to the culture plate. Serial dilutions of intervention and references compounds were made from their respective stock solutions to give a total volume of 150 μL in each well. Plates were incubated overnight in cell culture. The following day, 50 μL of a 4 mM BSO solution (in culture media) was added to each well to provide a final BSO concentration of 1 mM. Cell viability was assessed after first signs of toxicity appeared in BSO-treated cells (typically after 24-30 hours) by examining cultures under phase-contrast microscopy. The cell culture medium was discarded by aspiration and each well of the cell culture plate washed with pre-warmed HSSB to remove serum esterase activity. Cells were then treated in with 200 μL of 1.2 μM calcein-AM in HSSB for 60 min at 37° C. in the dark to allow the dye to enter the cell and be cleaved by esterases. The negative control/background was 200 μL of HSSB buffer. Fluorescence intensities were measured with a Spectramax M5 spectrofluorometer (Molecular Devices, Sunnyvale, Calif., USA) using excitation and emission of 485 nm and 525 nm respectively. The intervention compounds were assayed in triplicate. […] The viability of non-BSO treated fibroblasts was set as 100%, and the viability of the BSO-treated and sample-treated cells was calculated relative to this value. […]

As for `Cc1nc(N(C)C)nc(CCCCCCCCCCO)c1O` [Compound A, 2-N,N-dimethylamino-5-hydroxy-4-methyl-6-(10-hydroxydecyl)-pyrimidine], the “protection against ROS production (DCF fluorescence)” value (“protection against ROS production” for short) was “complete protection” with CEM cells (compound 1 μM, 5 mM DEM) and “significantly more effective in blocking diethylmaleate-induced ROS production compared to idebenone or its reduced form (Idebenol); also recorded: protected the cells” in the test with CEM cells (compound 5 μM, 5 mM DEM). For the same molecule, the “suppression of ROS production (DCF fluorescence)” value in the test on CEM cells (pretreatment 0.5, 1 or 5 μM, DEM) was “more effective than idebenone at all tested concentrations; also recorded: more effective than idebenone in suppressing ROS in a dose-dependent fashion”. The “protection of FRDA fibroblasts from oxidative damage (cell viability)” value in the test on FRDA fibroblasts is recorded as “more effective than idebenone”. In the test on FRDA fibroblasts (Homo sapiens, Fibroblast), the EC50 is 0.39 ± 0.028 µM.

As to `Cc1nc2c(c(CC[C@](C)(O)CCC[C@H](C)CCC[C@H](C)CCCC(C)C)c1O)CCN2C` [Compound C, 4-((3R,7R,11R)-3-hydroxy-3,7,11,15-tetramethylhexadecyl)-1,6-dimethyl-2,3-dihydro-1H-pyrrolo[2,3-b]pyridine-5-ol], in the test on CEM cells (1 μM, pretreatment 1, 3 or 6 hours, 5 mM DEM), the “suppression of ROS (DCF fluorescence)” value is “clearly more effective than α-tocopherol in suppressing ROS”. In addition, the “protection against ROS production” value with CEM cells (5 μM, pretreatment 4 or 24 h) is reported as “better protection against ROS production than α-tocopherol after a 4-hour preincubation”; in the test on CEM cells (compound 5 μM, 5 mM DEM) it was “more effective in protecting glutathione depleted CEM cells than α-tocopherol; also recorded: protected the cells”. Further, the “protection of FRDA fibroblasts from oxidative damage (cell viability)” value in the test with FRDA fibroblasts is “slightly more effective than α-tocopherol”. In the test with FRDA fibroblasts (Homo sapiens, Fibroblast), the EC50 is 0.833 ± 0.075 µM.

As to `COC1=C(OC)C(=O)C(CCCCCCCCCCO)=C(C)C1=O` [idebenone, reference compound], in the test on CEM cells (compound 5 μM, 5 mM DEM), the “protection against ROS production” value is given as “only limited effect”. Moreover, in the test on FRDA fibroblasts (Homo sapiens, Fibroblast), the EC50 is 0.71 ± 0.08 µM.

Turning to `Cc1c(C)c2c(c(C)c1O)CC[C@@](C)(CCC[C@H](C)CCC[C@H](C)CCCC(C)C)O2` [α-tocopherol, reference compound], the “protection against ROS production” value in the test with CEM cells (compound 5 μM, 5 mM DEM) is listed as “ineffective”. In addition, in the test on FRDA fibroblasts, the EC50 was 1.03 ± 0.116 µM.
